For one test, the target named is hSERT (Homo sapiens, UniProt P31645). Put plainly: fluorescence-based serotonin reuptake inhibition assay (Tsuruda et al. 2010; data indicated by an asterisk). In kind it is cell-based. On the set-up: expressed in transfected cells; host or cells: HEK-293. To be noted: fluorescence-based assay (values with asterisk), read-out: SERT pIC50 (converted).
Another test has as its target hNET (Homo sapiens, UniProt P23975). Put plainly: fluorescence-based norepinephrine reuptake inhibition assay (Tsuruda et al. 2010; data indicated by an asterisk). In kind it is cell-based. On the set-up: expressed in transfected cells; host or cells: HEK-293. The conditions noted are these: fluorescence-based assay (values with asterisk).
[1] abbreviates: norepinephrine reuptake inhibition, read-out: NET pIC50 (converted).

Like-named read-outs stand apart in the source and are kept apart here. Bounds are passed on as bounds.

Sequence of hSERT (P31645 whole entry): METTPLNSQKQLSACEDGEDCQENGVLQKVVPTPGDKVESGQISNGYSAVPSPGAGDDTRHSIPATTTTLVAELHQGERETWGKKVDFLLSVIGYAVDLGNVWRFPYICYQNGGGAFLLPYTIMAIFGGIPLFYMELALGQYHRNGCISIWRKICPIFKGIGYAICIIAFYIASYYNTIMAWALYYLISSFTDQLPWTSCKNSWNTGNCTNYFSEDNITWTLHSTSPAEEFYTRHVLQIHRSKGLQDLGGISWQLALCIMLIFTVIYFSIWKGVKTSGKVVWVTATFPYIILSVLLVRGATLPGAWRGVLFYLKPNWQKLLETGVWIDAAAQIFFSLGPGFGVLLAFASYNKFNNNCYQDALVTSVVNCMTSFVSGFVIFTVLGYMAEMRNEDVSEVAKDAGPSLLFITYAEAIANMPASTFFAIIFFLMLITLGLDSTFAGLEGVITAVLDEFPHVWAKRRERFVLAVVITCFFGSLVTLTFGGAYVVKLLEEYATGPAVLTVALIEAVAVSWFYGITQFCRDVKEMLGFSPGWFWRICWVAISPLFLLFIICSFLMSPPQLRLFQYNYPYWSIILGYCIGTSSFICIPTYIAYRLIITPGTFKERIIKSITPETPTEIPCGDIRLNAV
Sequence of hNET (P23975 whole entry): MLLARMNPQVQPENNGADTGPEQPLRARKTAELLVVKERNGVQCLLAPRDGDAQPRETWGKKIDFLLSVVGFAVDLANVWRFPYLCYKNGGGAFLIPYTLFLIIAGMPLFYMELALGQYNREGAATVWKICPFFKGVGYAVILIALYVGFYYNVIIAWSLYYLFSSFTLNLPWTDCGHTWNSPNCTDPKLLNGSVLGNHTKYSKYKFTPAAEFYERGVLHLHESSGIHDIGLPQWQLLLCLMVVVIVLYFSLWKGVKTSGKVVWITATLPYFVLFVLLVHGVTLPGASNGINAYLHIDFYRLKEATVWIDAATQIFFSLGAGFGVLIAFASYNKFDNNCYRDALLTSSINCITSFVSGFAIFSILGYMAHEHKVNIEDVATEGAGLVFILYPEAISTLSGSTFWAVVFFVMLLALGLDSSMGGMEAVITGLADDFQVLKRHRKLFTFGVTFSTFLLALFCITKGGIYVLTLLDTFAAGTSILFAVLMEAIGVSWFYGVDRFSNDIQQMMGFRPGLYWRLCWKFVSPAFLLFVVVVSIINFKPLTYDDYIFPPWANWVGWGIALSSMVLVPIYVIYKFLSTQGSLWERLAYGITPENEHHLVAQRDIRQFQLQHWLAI

On to `Cc1cc(O[C@@H](C2CC2)[C@H]2CCNC2)cc(C)c1Cl` [Example 16-101, (S)-3-[(S)-(4-Chloro-3,5-dimethylphenoxy)cyclopropylmethyl]pyrrolidine], for which the results for the IC50 at hSERT and on hNET (setting [1]) were no more than 10 nM and no more than 100 nM, respectively.

Turning to `CCC[C@H](Oc1ccc(Cl)c(C)c1)[C@H]1CCNC1` [Example 4-16, (S)-3-[(S)-1-(4-Chloro-3-methylphenoxy)butyl]pyrrolidine], the IC50 on hSERT and at hNET (setting [1]) was no more than 10 nM each time.

For `CCC[C@@H](Oc1ccc(Cl)cc1C)[C@@H]1CCNC1` [Example 4-61, (R)-3-[(R)-1-(4-Chloro-2-methylphenoxy)butyl]pyrrolidine], the IC50 on hSERT and on hNET (setting [1]) was no more than 100 nM throughout.

For `CC(C)C[C@@H](Oc1cccc(Cl)c1C(F)(F)F)[C@H]1CCNC1` [Example 10-34, (S)-3-[(R)-1-(3-Chloro-2-trifluoromethylphenoxy)-3-methylbutyl]pyrrolidine], the figures for the IC50 on hSERT and on hNET (setting [1]) were no more than 10 nM and no more than 100 nM, respectively.

As for `CCC[C@@H](Oc1ccc(Cl)c(Cl)c1F)[C@H]1CCNC1` [Example 4-51, (S)-3-[(R)-1-(3,4-Dichloro-2-fluorophenoxy)butyl]pyrrolidine], the IC50 on hSERT and at hNET (setting [1]) was no more than 10 nM in each case.

In the case of `CC[C@H](Oc1cc(Cl)cc(OC)c1)[C@H]1CCNC1` [Example 2-20, (S)-3-[(S)-1-(3-Chloro-5-methoxyphenoxy)propyl]pyrrolidine], the IC50 at hSERT and at hNET (setting [1]) was no more than 100 nM each time.

Take `CC(C)[C@H](Oc1cccc(F)c1Cl)[C@@H]1CCNC1` [Example 6-20, (R)-3-[(S)-1-(2-Chloro-3-fluorophenoxy)-2-methylpropyl]pyrrolidine]: the IC50 at hSERT and at hNET (setting [1]) was no more than 100 nM each time.

Take `CC(C)[C@@H](Oc1cc(F)cc(Cl)c1)[C@@H]1CCNC1` [Example 6-61, (R)-3-[(R)-1-(3-Chloro-5-fluorophenoxy)-2-methylpropyl]pyrrolidine]: the IC50 at hSERT and on hNET (setting [1]) was no more than 100 nM throughout.

`CC[C@H](Oc1cccc(Cl)c1C)[C@H]1CCNC1` [Example 2-64, (S)-3-[(S)-1-(3-Chloro-2-methylphenoxy)propyl]pyrrolidine]: the IC50 on hSERT and at hNET (setting [1]) was no more than 10 nM in each case.

In the case of `CC(C)[C@H](Oc1cccc(Cl)c1Cl)[C@@H]1CCNC1` [Example 6-16, (R)-3-[(S)-1-(2,3-Dichlorophenoxy)-2-methylpropyl]pyrrolidine], the IC50 on hSERT and on hNET (setting [1]) was no more than 100 nM throughout.

Turning to `CCC[C@H](Oc1cccc(C)c1C)[C@H]1CCNC1` [Example 4-62, (S)-3-[(S)-1-(2,3-Dimethylphenoxy)butyl]pyrrolidine], the IC50 on hSERT and on hNET (setting [1]) was no more than 10 nM in each case.

As to `Cc1c(Cl)cccc1O[C@@H](C(C)C)[C@@H]1CCNC1` [Example 6-42, (R)-3-[(S)-1-(3-Chloro-2-methylphenoxy)-2-methylpropyl]pyrrolidine], the IC50 is no more than 10 nM on hSERT and no more than 100 nM on hNET (setting [1]).

With `CC(C)[C@H](Oc1cc(Cl)cc(Cl)c1)[C@@H]1CCNC1` [Example 6-69, (R)-3-[(S)-1-(3,5-Dichlorophenoxy)-2-methylpropyl]pyrrolidine], the IC50 on hSERT and on hNET (setting [1]) was no more than 100 nM in each case.

With `Fc1c(Cl)ccc(O[C@@H](C2CC2)[C@H]2CCNC2)c1F` [Example 16-48, (S)-3-[(S)-(4-Chloro-2,3-difluorophenoxy)cyclopropylmethyl]pyrrolidine], the IC50 on hSERT and at hNET (setting [1]) was no more than 10 nM each time.

With `CC[C@H](Oc1cc(C)c(Cl)c(C)c1)[C@H]1CCNC1` [Example 2-15, (S)-3-[(S)-1-(4-Chloro-3,5-dimethylphenoxy)propyl]pyrrolidine], the IC50 is no more than 10 nM on hSERT and no more than 100 nM on hNET (setting [1]).

Regarding `CC(C)C[C@H](Oc1cc(Cl)ccc1Cl)[C@H]1CCNC1` [Example 10-51, (S)-3-[(S)-1-(2,5-Dichlorophenoxy)-3-methylbutyl]pyrrolidine], the IC50 on hSERT and on hNET (setting [1]) was no more than 10 nM throughout.

`CCC[C@H](Oc1c(C)cc(Cl)cc1Cl)[C@H]1CCNC1` [Example 4-41, (S)-3-[(S)-1-(2,4-Dichloro-6-methylphenoxy)butyl]pyrrolidine]: the IC50 at hSERT and at hNET (setting [1]) was no more than 10 nM in each case.

`CCC[C@H](Oc1ccc(Cl)c(Cl)c1F)[C@H]1CCNC1` [Example 4-52, (S)-3-[(S)-1-(3,4-Dichloro-2-fluorophenoxy)butyl]pyrrolidine]: the IC50 on hSERT and at hNET (setting [1]) was no more than 10 nM throughout.

On to `Clc1cc(Cl)cc(OC(C2CCCC2)C2CCNC2)c1` (stereo not shown) [Example 18-9, 3-[Cyclopentyl-(3,5-dichlorophenoxy)methyl]pyrrolidine], for which the IC50 on hSERT and on hNET (setting [1]) was no more than 10 nM each time.

For the molecule `CC(C)C[C@H](Oc1c(F)ccc(F)c1Cl)[C@H]1CCNC1` [Example 10-63, (S)-3-[(S)-1-(2-Chloro-3,6-difluorophenoxy)-3-methylbutyl]pyrrolidine], the IC50 on hSERT and on hNET (setting [1]) was no more than 10 nM throughout.

Regarding `CC[C@@H](Oc1ccc(Cl)c(Cl)c1)[C@H]1CCNC1` [Example 2-8, (S)-3-[(R)-1-(3,4-Dichlorophenoxy)propyl]pyrrolidine], the IC50 is no more than 10 nM on hSERT and no more than 100 nM at hNET (setting [1]).

Take `CC(C)[C@H](Oc1cccc2ccccc12)[C@@H]1CCNC1` [Example 14-4, (R)-3-[(S)-2-Methyl-1-(naphthalen-1-yloxy)propyl]pyrrolidine]: the IC50 on hSERT is no more than 10 nM; on hNET (setting [1]) it was no more than 100 nM.

In the case of `CCC[C@@H](Oc1ccc(Cl)c(C)c1)[C@H]1CCNC1` [Example 4-15, (S)-3-[(R)-1-(4-Chloro-3-methylphenoxy)butyl]pyrrolidine], the IC50 on hSERT is no more than 10 nM; at hNET (setting [1]) it was no more than 100 nM.

On to `CC(C)[C@H](Oc1ccc(C(F)(F)F)cc1Cl)[C@H]1CCNC1` [Example 6-25, (S)-3-[(S)-1-(2-Chloro-4-trifluoromethylphenoxy)-2-methylpropyl]pyrrolidine], for which the IC50 at hSERT was no more than 10 nM; on hNET (setting [1]) it was no more than 100 nM.

On to `CC(C)[C@@H](Oc1c(F)cc(Cl)cc1F)[C@@H]1CCNC1` [Example 6-6, (R)-3-[(R)-1-(4-Chloro-2,6-difluorophenoxy)-2-methylpropyl]pyrrolidine], for which the IC50 at hSERT and at hNET (setting [1]) was no more than 100 nM throughout.

For the molecule `CC[C@@H](Oc1ccc(Cl)c(C)c1)[C@H]1CCNC1` [Example 2-14, (S)-3-[(R)-1-(4-Chloro-3-methylphenoxy)propyl]pyrrolidine], the IC50 on hSERT was no more than 10 nM; at hNET (setting [1]), no more than 100 nM.

As for `FC(F)(F)c1c(Cl)cccc1OC(C1CCCC1)C1CCNC1` (single isomer, unassigned) [Example 18-3, 3-[(3-Chloro-2-trifluoromethylphenoxy)cyclopentylmethyl]pyrrolidine], the IC50 on hSERT is no more than 100 nM; on hNET (setting [1]), no more than 10 nM.

As for `CC[C@@H](Oc1ccc(Cl)cc1Cl)[C@H]1CCNC1` [Example 2-34, (S)-3-[(R)-1-(2,4-Dichlorophenoxy)propyl]pyrrolidine], the IC50 at hSERT was no more than 10 nM; at hNET (NET pIC50, norepinephrine reuptake inhibition), no more than 100 nM.

As for `CCC[C@H](Oc1cccc(F)c1F)[C@H]1CCNC1` [Example 4-45, (S)-3-[(S)-1-(2,3-Difluorophenoxy)butyl]pyrrolidine], the IC50 was no more than 100 nM at hSERT and no more than 10 nM on hNET (setting [1]).

For the origin of these results see patent US7994209B2, “3-phenoxymethylpyrrolidine compounds” (Theravance, Inc., priority 2009, dated 2011).
